In ChEMBL document CHEMBL4265985, “Discovery of a potent, low-absorbable sodium-dependent glucose cotransporter 1 (SGLT1) inhibitor (TP0438836) for the treatment of type 2 diabetes” (Bioorg Med Chem Lett, 2018):
Activity calls are given as the source filed them. No cut-off for these calls is given here.

What was measured:
[1] = target: T1, Sodium/glucose cotransporter 1 (Homo sapiens, UniProt P13866); assay: Inhibition of human SGLT1 expressed in CHOK1 cells assessed as reduction in Na-dependent [14C]-methyl-alpha-D-glucopyranoside uptake after 30 mins by microbeta counting method; type: cell-based
T1 sequence (P13866 whole entry): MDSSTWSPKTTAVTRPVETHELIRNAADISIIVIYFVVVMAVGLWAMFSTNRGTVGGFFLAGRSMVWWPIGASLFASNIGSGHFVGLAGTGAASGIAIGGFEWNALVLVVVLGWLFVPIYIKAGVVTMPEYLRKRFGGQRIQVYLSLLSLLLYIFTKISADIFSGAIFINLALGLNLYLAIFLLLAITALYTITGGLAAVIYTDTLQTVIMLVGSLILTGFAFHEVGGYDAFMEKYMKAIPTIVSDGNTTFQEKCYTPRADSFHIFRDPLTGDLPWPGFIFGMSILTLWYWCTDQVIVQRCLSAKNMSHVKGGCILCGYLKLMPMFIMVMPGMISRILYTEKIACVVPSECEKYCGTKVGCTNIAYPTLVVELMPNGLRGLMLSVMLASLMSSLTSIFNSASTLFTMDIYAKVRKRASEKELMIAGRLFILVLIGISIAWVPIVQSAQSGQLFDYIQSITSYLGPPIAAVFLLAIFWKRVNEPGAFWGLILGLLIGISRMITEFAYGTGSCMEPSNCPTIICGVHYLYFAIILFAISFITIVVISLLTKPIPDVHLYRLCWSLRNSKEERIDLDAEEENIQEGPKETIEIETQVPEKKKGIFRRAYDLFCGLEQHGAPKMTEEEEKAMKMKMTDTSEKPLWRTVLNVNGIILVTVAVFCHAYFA

[2] = target: T2, Sodium/glucose cotransporter 2 (Homo sapiens, UniProt P31639); assay: Inhibition of human SGLT2 expressed in CHOK1 cells assessed as reduction in Na-dependent [14C]-methyl-alpha-D-glucopyranoside uptake after 1 hr by microbeta counting method; type: cell-based
T2 sequence (P31639 whole entry): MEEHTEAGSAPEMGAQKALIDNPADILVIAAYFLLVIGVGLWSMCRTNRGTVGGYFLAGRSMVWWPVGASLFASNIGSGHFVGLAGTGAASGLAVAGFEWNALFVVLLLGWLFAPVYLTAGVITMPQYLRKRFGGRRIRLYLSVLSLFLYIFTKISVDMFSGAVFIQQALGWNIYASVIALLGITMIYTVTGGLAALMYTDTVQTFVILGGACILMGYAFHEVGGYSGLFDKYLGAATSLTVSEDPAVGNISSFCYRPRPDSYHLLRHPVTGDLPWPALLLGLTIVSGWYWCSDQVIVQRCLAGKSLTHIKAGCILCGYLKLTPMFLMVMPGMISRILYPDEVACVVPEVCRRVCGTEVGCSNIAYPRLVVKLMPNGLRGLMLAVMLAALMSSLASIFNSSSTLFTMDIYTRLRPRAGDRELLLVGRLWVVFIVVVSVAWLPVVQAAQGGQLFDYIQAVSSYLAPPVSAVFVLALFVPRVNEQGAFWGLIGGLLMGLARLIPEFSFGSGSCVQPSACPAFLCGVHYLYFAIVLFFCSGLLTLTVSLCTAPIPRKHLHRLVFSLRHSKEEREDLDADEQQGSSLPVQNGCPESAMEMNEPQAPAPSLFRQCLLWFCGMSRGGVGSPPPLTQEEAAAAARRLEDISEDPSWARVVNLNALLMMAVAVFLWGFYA

[3] = Total clearance in Sprague-Dawley rat at 2 mg/kg, iv administered as single dose by LC-MS analysis; type: ADME, organism-based; conditions: in vivo
[4] = Volume of distribution at steady state in Sprague-Dawley rat at 2 mg/kg, iv administered as single dose by LC-MS analysis; type: ADME, organism-based; conditions: in vivo, read-out: Vdss
[5] = Terminal half life in Sprague-Dawley rat at 2 mg/kg, iv administered as single dose by LC-MS analysis; type: ADME, organism-based; conditions: in vivo, read-out: beta t1/2 (converted)
[6] = Cmax in Sprague-Dawley rat at 1 mg/kg, po administered as single dose by LC-MS analysis; type: ADME, organism-based; design: dose 1 mg/kg, route oral; conditions: in vivo
[7] = Tmax in Sprague-Dawley rat at 1 mg/kg, po administered as single dose by LC-MS analysis; type: ADME, organism-based; conditions: in vivo
[8] = Oral bioavailability in Sprague-Dawley rat at 1 mg/kg administered as single dose by LC-MS analysis; type: ADME, organism-based; conditions: in vivo
[9] = Permeability of the compound at 50 uM after 24 hrs at pH 7.4 by PAMPA; type: ADME; conditions: read-out: permeability
Rattus norvegicus [10] = assay: Hypoglycemic effect in Sprague-Dawley rat assessed as reduction in blood glucose AUC (0 to 2 hrs) at 0.1 mg/kg, po pretreated followed by glucose challenge by OGTT relative to control; type: functional; design: scale not given: the % may be the effect or the level left
Rattus norvegicus [11] = assay: Hypoglycemic effect in Sprague-Dawley rat assessed as reduction in blood glucose AUC (0 to 2 hrs) at 0.3 mg/kg, po pretreated followed by glucose challenge by OGTT relative to control; type: functional; design: scale not given: the % may be the effect or the level left
Rattus norvegicus [12] = assay: Hypoglycemic effect in Sprague-Dawley rat assessed as reduction in blood glucose AUC (0 to 2 hrs) at 1 mg/kg, po pretreated followed by glucose challenge by OGTT relative to control; type: functional; design: scale not given: the % may be the effect or the level left
Rattus norvegicus [13] = assay: Hypoglycemic effect in Sprague-Dawley rat assessed as reduction in blood glucose AUC (0 to 2 hrs) pretreated orally followed by glucose challenge by OGTT; type: functional, organism-based
Rattus norvegicus [14] = assay: In vivo inhibition of SGLT2 Sprague-Dawley rat assessed as increase in urinary glucose excretion at 0.1 to 0.3 mg/kg, po bid for 4 days followed by glucose challenge on day 5; type: functional, organism-based

Row | SMILES | IC50 [1] | IC50 [2] | also measured
1 | Cc1ccc(Cc2cc([C@@H]3S[C@H](CO)[C@@H](O)[C@H](O)[C@H]3O)c(O)cc2C)cc1 | 25 nM | 2 nM | 
2 | Cc1cc(O)c([C@@H]2O[C@H](CO)[C@@H](O)[C@H](O)[C@H]2O)cc1Cc1ccc(CCNC(=O)NC(C)(C)CO)cc1 |  | 4 nM | 
3 | Cc1cc(O)c([C@@H]2S[C@H](CO)[C@@H](O)[C@H](O)[C@H]2O)cc1Cc1ccc(CCCC(=O)NC(C)(C)C(N)=O)cc1 | 47 nM | 4 nM | 
4 | CCc1ccc(Cc2cc([C@@H]3S[C@H](CO)[C@@H](O)[C@H](O)[C@H]3O)c(O)cc2C)cc1 |  | 2 nM | 
5 | COc1ccc(Cc2cc([C@@H]3S[C@H](CO)[C@@H](O)[C@H](O)[C@H]3O)c(O)cc2C)cc1 | 65 nM |  | 
6 | Cc1cc(O)c([C@@H]2O[C@H](CO)[C@@H](O)[C@H](O)[C@H]2O)cc1Cc1ccc(CCCC(=O)NC(CO)(CO)CO)cc1 | 35 nM |  | 
7 | Cc1cc(O)c([C@@H]2O[C@H](CO)[C@@H](O)[C@H](O)[C@H]2O)cc1Cc1ccc(CCCC(=O)NC(C)(CO)CO)cc1 | 32 nM |  | 
8 | Cc1cc(O)c([C@@H]2O[C@H](CO)[C@@H](O)[C@H](O)[C@H]2O)cc1Cc1ccc(CCCNC(=O)NC(C)(C)CO)cc1 |  | 5 nM | 
9 | Cc1cc(O)c([C@@H]2S[C@H](CO)[C@@H](O)[C@H](O)[C@H]2O)cc1Cc1ccc(OC(C)C)cc1 | 414 nM | 3 nM | 
10 | Cc1cc(O)c([C@@H]2O[C@H](CO)[C@@H](O)[C@H](O)[C@H]2O)cc1Cc1ccc(CCNC(=O)NC(CO)(CO)CO)cc1 | 28 nM | 7 nM | clearance [3]: 18 mL/min/kg; Vd [4]: 0.439 L/kg; half-life [5]: 21.7 min; Cmax [6]: 1.46 ng/mL; Tmax [7]: 15 min; bioavailability [8]: 0.05%; Papp at 24 h, 50 µM [9]: 0.3 ×10⁻⁶ cm/s; Activity (Rattus norvegicus [10]): 31.5%; Activity (Rattus norvegicus [11]): 58.5%; Activity (Rattus norvegicus [12]): 62.2%; Activity (Rattus norvegicus [13]): Dose-dependent effect; inhibition (Rattus norvegicus [14]): inactive

More lines, main results first:

Row | IC50 [1] | IC50 [2] | SMILES | also measured
11 | 51 nM | 7 nM | Cc1cc(O)c([C@@H]2O[C@H](CO)[C@@H](O)[C@H](O)[C@H]2O)cc1Cc1ccc(CCCC(=O)NC(C)(C)C(N)=O)cc1 | 
12 | 162 nM | 3 nM | CCOc1ccc(Cc2cc([C@@H]3S[C@H](CO)[C@@H](O)[C@H](O)[C@H]3O)c(O)cc2C)cc1 | 
13 |  | 7 nM | Cc1cc(O)c([C@@H]2O[C@H](CO)[C@@H](O)[C@H](O)[C@H]2O)cc1Cc1ccc(CCCNC(=O)NC(CO)(CO)CO)cc1 | 
14 | 22 nM | 5 nM | Cc1cc(O)c([C@@H]2S[C@H](CO)[C@@H](O)[C@H](O)[C@H]2O)cc1Cc1ccc(CCCC(=O)NC(C)(CO)CO)cc1 | 
15 | 35 nM | 9 nM | Cc1cc(O)c([C@@H]2S[C@H](CO)[C@@H](O)[C@H](O)[C@H]2O)cc1Cc1ccc(CCCC(=O)NC(CO)(CO)CO)cc1 | 
16 | 764 nM | 5 nM | Cc1cc(O)c([C@@H]2O[C@H](CO)[C@@H](O)[C@H](O)[C@H]2O)cc1Cc1ccc(CCCNC(=O)N2CCN(C)CC2)cc1 | 
